# From publication PMC12560828, “Chemical structure drives developmental toxicity of alkyl-substituted naphthalenes in zebrafish” (Environment international, 2025)
# “And” between values parts separate entries of the source, which are not always exact repeats. Equal values may be shown once. Read-outs that look alike come from different tables or passages of the source.
# What was measured:
# [1] = system: zebrafish larvae, 120 hpf; assay: Larval photomotor response (LPR) assay after vial exposure; assay type: in vivo, Danio rerio; settings: LPR
# Experimental: (§1) When embryos were 6 hpf they were bleached in groups of 1000 or less to limit bacterial growth in sealed vials. Embryos were placed in a strainer for transfer between solutions in 500 mL containers. […] Pools of eight embryos were placed into 2 mL clear glass screw cap exposure vials with polyvinyl-faced pulp liner (Avantar Radnor, PA, United States) using a glass Pasteur pipette. Excess EM was removed, and 2 mL of fresh EM was immediately added. A total of 10 uL of 200x working stock (in DMSO) was added to each vial, then immediately capped and inverted three times to mix. […] Vials were loaded into a custom 3D printed vial holder for slow end-over-end rotation in a dark 28 °C incubator overnight. […] At 24 hpf, embryos were removed from exposure vials and singulated into 96-well plates loaded with 100 μL chemical-free EM. Each exposure vial group was maintained in plate columns. After loading into 96-well plates, embryos were assessed for 24-hour mortality. For the remainder of the exposure, plates were kept stationary at 28 °C in the dark, until 120 hpf when morphology screening and the larval photo motor response (LPR) assay were conducted, section 2.3.2 and section 2.3.3, respectively.
# Each treatment group was replicated over four vials, resulting in 32 embryos per treatment, split over two replicate 96-well plates per chemical. […] Vial groups of plated larvae were tracked to assess the impact of the vial on the results. All reported concentrations were nominal water concentrations and are included in SI-T4.
# The LPR assay was conducted at 120 hpf. […] Larval movement was tracked throughout minutes 6–24. Animals dead or morphologically abnormal were excluded from the analysis, and if more than 30 % of the wells in a treatment group were excluded, the treatment was removed.
# Movement values were binned into 6s intervals, log normalized and used to calculate area under the curve (AUC). AUC values from the first cycle after calibration were used to calculate the LEL for each period (light and dark).
# lung tissue = settings: compared to naphthalene and monomethylated derivatives, ref Honda et al., 1990, cited from earlier work
# [2] = system: early life stage zebrafish (Danio rerio) embryos; assay: Developmental toxicity morphology screen, sealed rotating vial exposure; assay type: in vivo; set-up: bmd, MO24 / bmd, MORT / bmd, ANY_ / bmd, AXIS / bmd, CRAN / bmd, EDEM / bmd, LTRK / bmd, MUSC / bmdL, ANY_ / bmdU, ANY_ / bmdL, AXIS / bmdU, AXIS / bmdL, CRAN / bmdU, CRAN / bmdL, EDEM / bmdU, EDEM / bmdL, LTRK / bmdU, LTRK / bmdL, MO24 / bmdU, MO24 / bmdL, MORT / bmdU, MORT: unit not given here; settings: for morphological effects (BMC50 for any morphological endpoint): 0-50 μM, result in words
# Experimental: as §1
# Each treatment group was replicated over four vials, resulting in 32 embryos per treatment, split over two replicate 96-well plates per chemical. […] All reported concentrations were nominal water concentrations and are included in SI-T4.
# At 24 hpf embryos were assessed for mortality (MO24). At 120 hpf embryos were assessed for abnormality in […] morphological endpoints: mortality (MORT), edemas (EDEM), bent axis (AXIS), touch response (TCHR), craniofacial (CRAN), muscular/cardiovascular (MUSC), lower trunk (LRTK), brain (BRAN), skin (SKIN), and notochord malformations (NC). Morphological assessments were made by a team of three to four individuals. The team was blinded to the identity, plate layout, and concentrations of the chemicals, thereby minimizing bias in morphological screening assessment. To ensure the assessments were consistent, concentration–response reproducibility of a parathion ethyl quality control plate was performed along with each experimental exposure set up. Details of all measured endpoints can be found at Developmental toxicity zebrafish phenotype atlas. […] Each endpoint was scored as a binary presence/absence and scores were compiled into an “Any effect” endpoint, the presence of abnormality in any individual endpoint.
# The Any effect percent was used to calculate the BMC50, 50 % change relative to the background for each endpoint and chemical. All values were reported as the nominal exposure concentration.
# zebrafish embryos [3] = assay: Body burden measurement (GC-MS/MS) and concentration uptake ratio, vial exposure; assay type: in vivo, Danio rerio; settings: for measured concentration in embryo extract: 20 μM exposure, 32 pooled embryos, 0.5 mL extract, single replicates; for nmol/embryo per nmol available / nmol/embryo: Current study, vial, 20 μM; for nmol/embryo: single chemical
# Experimental: (§2) Body burden was measured for exposure to five chemicals at two timepoints: 24 and 48 hpf. […] The exposure concentration was chosen as it was the maximum possible concentration that ensured enough viable animals for collection at 48 hpf and allowed direct comparison of chemical uptake at the same exposure concentration.
# (§3) Chemicals were exposed at 20 μM following the exposure procedure detailed in section 1.3, 24 vials per chemical. At 24 hpf, embryos were pooled in groups of 32 embryos (combining embryos from 4 vials) into 1.5 mL polypropylene RINO-safe lock tubes (n = 3 per chemical treatment, n = 3 per control). Tubes were briefly placed on ice to reduce embryo movement (<1 min); the remaining medium was removed; the tube was then flash frozen in liquid nitrogen and stored at −20 °C until extraction. Embryos in the remaining vials were plated as previously described in section 1.3 until collection at 48 hpf following the same procedure as 24 hpf collections (n = 3 per chemical treatment, n = 1 control).
# (§4) Tissue extraction was performed as previously reported ([Rude et al., 2025]). Each sample was spiked with 25 μL internal standard in ethyl acetate and 100 μL of 1 mm glass beads (Next Advance, Troy, NY United States) were added to the RINO-safe lock tubes containing thawed tissue samples and left on ice for 10 min 250 mg of Na2SO4 and 200 μL of ethyl acetate were added to each tube and vortexed. Tubes were homogenized at speed 8 for 6 min in a Bullet Blender (Next Advance, Troy, NY, United States). 300 μL of ethyl acetate was added to each tube and the homogenization step was repeated until no pieces of non-homogenized fish tissue remained. Samples were then centrifuged for 10 min at 4 °C, 1600g. Sample supernatant (0.5 mL) was collected into amber vials and stored at 4 °C until chemical analysis.
# (§5) Samples were analyzed for quantitation and identification of 161 PAHs. The method was performed with an Agilent 7890 gas chromatograph (GC), with a 7000C triple quadrupole mass spectrometer (MS/MS) using an Agilent J&W PAH select (30 m × 250 μm × 0.15 μm GC column). Calibration for each analyte utilized at least a 4-point (range: 4–7, median 6 points, n = 161) curve with R^2 ≥ 0.99. Specific instrument conditions were modified from [Anderson et al. (2015)] and are detailed in Table S3. GC–MS/MS data was analyzed using MassHunter Quantitative Analysis v.B.06.00 SP1 build 6.0.388.1 software (Agilent Corp. Wilmington,DE) ([Anderson et al., 2015]). Dynamic muti-reaction monitoring mode was used during analyses, and all PAHs were identified using analytical standards obtained from multiple sources (Table S1). Collison energies were optimized for each individual unsubstituted PAH, alkylation series (C1, C2, etc.), and when possible, specific alkylation group (i.e. methyl, ethyl, etc.).
# (§6) Body burden concentrations based on average embryo wet weight at each timepoint were determined by the equation below. Total measured chemical was calculated from ng/mL concentrations times sample volume (0.5 mL). Bodyburdennmol/mgbw=total measured chemicalnmol/number of fish32×average body weightmg
# (§7) Average body weights at 24 hpf and 48 hpf were assumed to be 0.31 mg and 0.26 mg, respectively as determined previously ([Rericha et al., 2024]). Statistical analysis to compare time points within chemicals was performed using a two-sided Student’s t-test (p-value ≤ 0.05). An ANOVA with a follow-up Dunn’s test was used to compare body burden between chemicals at 24 hpf (p-value ≤ 0.05). Body burden concentrations at 24 hpf were compared to the estimated percent effect of each measured chemical at the exposure concentration used for body burden analysis (20 μM). These estimates were made using the fitted concentration-response curves previously described in section 2.3.2.2.
# (§8) Concentration uptake ratios between vial exposures and 96-well plate exposures were compared using a two-sided Student’s t-test, p-values ≤ 0.05 were considered significant. […]
# [4] = as above; assay type: in vivo, Danio rerio; settings: zebrafish (Danio rerio), whole embryos (32 pooled, ethyl acetate extract), other: waterborne exposure of embryos in sealed vials, 20 μM exposure, 32 pooled embryos, 0.5 mL extract, single replicates, read-out: measured concentration in embryo extract
# Experimental: as §2, §3, §4, §5, §6, §7, §8
# zebrafish embryos [5] = settings: 96-well, cited from earlier work
# [6] = period dark, round 1, conc 3.125
# [7] = period dark, round 1, conc 6.25
# [8] = period dark, round 1, conc 12.5
# [9] = period light, round 1, conc 3.125
# [10] = period light, round 1, conc 6.25
# [11] = period light, round 1, conc 12.5
# [12] = 24 hpf, 2.6 μM, mixture, ref Rude et al 2025
# [13] = 48 hpf, 2.6 μM, mixture, ref Rude et al 2025
structure (smiles),measurement,setting,value
CC(C)c1ccc2ccccc2c1 [2-isopropylnaphthalene],fold_change,[1]; [6],-0.04413
same,fold_change,[1]; [7],-0.6849
same,fold_change,[1]; [8],-1.554
same,fold_change,"[1]; period dark, round 2, conc 12.8",-0.9379
same,fold_change,"[1]; period dark, round 2, conc 16",-1.368
same,fold_change,"[1]; period dark, round 2, conc 20",-1.899
same,fold_change,[1]; [9],0.2872
same,fold_change,[1]; [10],0.3099
same,fold_change,[1]; [11],1.277
same,fold_change,"[1]; period light, round 2, conc 12.8",-0.1327
same,fold_change,"[1]; period light, round 2, conc 16",-0.2493
same,fold_change,"[1]; period light, round 2, conc 20",0.1913
same,toxicity / lung tissue damage in mice,lung tissue,minimally active
same,BMC50 MO24 (mortality at 24 hpf),"[2]; Fig. 2, nominal concentration",29.9 µM
same,BMC50 MORT (mortality at 120 hpf),"[2]; Fig. 2, nominal concentration",25.2 µM
same,BMC50 Any effect,"[2]; Fig. 2 heatmap, nominal concentration, exposure 6-24 hpf in vials, summary of all endpoints",19.8 µM
same,any effect BMD50,[2]; SI-T5,19.85 µM
same,"bmd, MO24","[2]; endpoint MO24, benchmark dose",29.9264
same,"bmdL, MO24","[2]; endpoint MO24, lower limit of benchmark dose",27.6751
same,"bmdU, MO24","[2]; endpoint MO24, upper limit of benchmark dose",32.9501
same,"bmd, MORT","[2]; endpoint MORT, benchmark dose",25.1507
same,"bmdL, MORT","[2]; endpoint MORT, lower limit of benchmark dose",24.3232
same,"bmdU, MORT","[2]; endpoint MORT, upper limit of benchmark dose",26.3204
same,"bmd, ANY_","[2]; morphology endpoint ANY_, benchmark dose",19.8483
same,"bmdL, ANY_","[2]; morphology endpoint ANY_, lower limit of benchmark dose",18.4734
same,"bmdU, ANY_","[2]; morphology endpoint ANY_, upper limit of benchmark dose",21.3892
c1ccc2ccccc2c1 [naphthalene],measured concentration in embryo extract,zebrafish embryos [3]; 24 hpf,4400 ng/mL and 5130 ng/mL
same,measured concentration in embryo extract,zebrafish embryos [3]; 48 hpf,66.9 ng/mL and 62 ng/mL
same,nmol/embryo per nmol available,zebrafish embryos [3]; 24 hpf,0.1585 and 0.1073 and 0.1251
same,nmol/embryo,zebrafish embryos [3]; 24 hpf,0.7924 nmol/embryo and 0.5364 nmol/embryo and 0.6254 nmol/embryo
same,nmol/embryo per nmol available,zebrafish embryos [3]; 48 hpf,0.001843 and 0.001631 and 0.001512
same,nmol/embryo,zebrafish embryos [3]; 48 hpf,0.009216 nmol/embryo and 0.008156 nmol/embryo and 0.007558 nmol/embryo
same,"concentration at 24 hpf, 20 μM",[4]; 24 hpf,6500 ng/mL
same,"concentration at 48 hpf, 20 μM",[4]; 48 hpf,75.6 ng/mL
same,mean nmol/embryo per nmol available,zebrafish embryos [5]; [12],0.004595
same,nmol/embryo,zebrafish embryos [5]; [12],0.001159 nmol/embryo and 0.001224 nmol/embryo and 0.001235 nmol/embryo
same,nmol/embryo per nmol available,zebrafish embryos [5]; [12],0.00446 and 0.00471 and 0.004751
same,nmol/embryo,zebrafish embryos [5]; [13],0.0007856 nmol/embryo and 0.00092 nmol/embryo and 0.0008366 nmol/embryo and 0.0008192 nmol/embryo
same,nmol/embryo per nmol available,zebrafish embryos [5]; [13],0.003022 and 0.003538 and 0.003218 and 0.003151
same,nmol/embryo,"zebrafish embryos [5]; 48 hpf, 5.39 μM, single chemical, ref Geier et al 2018",0.0007734 nmol/embryo and 0.0007422 nmol/embryo and 0.000789 nmol/embryo
same,nmol/embryo per nmol available,"zebrafish embryos [5]; 48 hpf, 5.39 μM, ref Geier et al 2018",0.001435 and 0.001377 and 0.001464
same,nmol/embryo,"zebrafish embryos [5]; 48 hpf, 11.6 μM, single chemical, ref Geier et al 2018",0.001794 nmol/embryo and 0.001746 nmol/embryo and 0.001648 nmol/embryo
same,nmol/embryo per nmol available,"zebrafish embryos [5]; 48 hpf, 11.6 μM, ref Geier et al 2018",0.001547 and 0.001505 and 0.001421
same,nmol/embryo,"zebrafish embryos [5]; 48 hpf, 25 μM, single chemical, ref Geier et al 2018",0.002233 nmol/embryo and 0.002584 nmol/embryo and 0.002516 nmol/embryo
same,nmol/embryo per nmol available,"zebrafish embryos [5]; 48 hpf, 25 μM, ref Geier et al 2018",0.0008933 and 0.001034 and 0.001006
same,morphological effects (BMC50 for any morphological endpoint),[2],no morphological BMC50 values
"CC(C)c1ccc2cc(C(C)C)ccc2c1 [2,6-diisopropylnaphthalene]",fold_change,[1]; [6],-0.1214
same,fold_change,[1]; [7],0.07359
same,fold_change,[1]; [8],-0.001373
same,fold_change,"[1]; period dark, round 1, conc 25",-0.09025
same,fold_change,"[1]; period dark, round 1, conc 50",-0.07941
same,fold_change,[1]; [9],-0.5097
same,fold_change,[1]; [10],-1.08
same,fold_change,[1]; [11],-0.05494
same,fold_change,"[1]; period light, round 1, conc 25",-0.2588
same,fold_change,"[1]; period light, round 1, conc 50",-0.8125
same,toxicity / lung tissue damage in mice,lung tissue,minimal damage to lung tissue
same,toxicity / lung tissue damage in mice,"lung tissue; listed as 2,6-diidopropylnaphthalene",minimally active
same,morphological effects (BMC50 for any morphological endpoint),[2],lack of activity
